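Dose response: 5 concentrations. Exposure: 48 h. Format: 96-well plates. Endpoint: linear interpolation; highest concentration if not reached. GI50: concentration for 50% inhibition of growth.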 Calls of active or inactive are those of the source. Rule as the data show it: active = GI50 up to about 1.1 µM and inactive = higher.
Columns and labels:
Test in all cases: growth of human tumour cells (NCI), 48 h
A549 = test system: A549
HCC 2998 = test system: HCC 2998
DMS-273 = test system: DMS-273
XF498 = test system: XF498
CCRF-CEM = test system: CCRF-CEM
KM12 = test system: KM12
CAKI-1 = test system: CAKI-1
NCI-H23 = test system: NCI-H23
ACHN = test system: ACHN
OVCAR-8 = test system: OVCAR-8
SF-268 = test system: SF-268
SNB-19 = test system: SNB-19
HOP-62 = test system: HOP-62
SF-295 = test system: SF-295
SW-620 = test system: SW-620
LXFL 529 = test system: LXFL 529
SK-OV-3 = test system: SK-OV-3
786-0 = test system: 786-0
HCT-15 = test system: HCT-15
Malme-3M = test system: Malme-3M
HT-29 = test system: HT-29
COLO 205 = test system: COLO 205
K562 = test system: K562
IGROV-1 = test system: IGROV-1
HCT-116 = test system: HCT-116
NCI-H460 = test system: NCI-H460
SNB-78 = test system: SNB-78
NCI-H226 = test system: NCI-H226
M14 = test system: M14
UACC-62 = test system: UACC-62
SN12C = test system: SN12C
MOLT-4 = test system: MOLT-4
TK-10 = test system: TK-10
SK-MEL-28 = test system: SK-MEL-28
RXF 631 = test system: RXF 631
KM-20L2 = test system: KM-20L2
OVCAR-3 = test system: OVCAR-3
NCI-H522 = test system: NCI-H522
UACC-257 = test system: UACC-257
SF-539 = test system: SF-539
A498 = test system: A498
RXF 393 = test system: RXF 393
HL-60 = test system: HL-60
RPMI-8226 = test system: RPMI-8226
HOP-92 = test system: HOP-92
OVCAR-4 = test system: OVCAR-4
DMS-114 = test system: DMS-114
M19-MEL = test system: M19-MEL
SNB-75 = test system: SNB-75
SR = test system: SR
LOX IMVI = test system: LOX IMVI
EKVX = test system: EKVX
DLD-1 = test system: DLD-1
OVCAR-5 = test system: OVCAR-5
UO-31 = test system: UO-31
SK-MEL-2 = test system: SK-MEL-2
U-251 = test system: U-251
SK-MEL-5 = test system: SK-MEL-5
HOP-18 = test system: HOP-18

`COc1ccc(-c2oc3c(OC)c(OC)c(OC)c(O)c3c(=O)c2OC)cc1O` was tested, and the GI50 (A549) was 0.36 µM (active), the GI50 (HCC 2998) was 2.11 µM (inactive) and the GI50 (DMS-273) was < 0.01 µM (active). The GI50 (XF498) was 0.279 µM (active), the GI50 (CCRF-CEM) was 0.0135 µM (active) and the GI50 (KM12) was 0.556 µM (active). The GI50 (CAKI-1) was 0.557 µM (active), the GI50 (NCI-H23) was 0.254 µM (active) and the GI50 (ACHN) was 0.0656 µM (active). For the same compound, the GI50 (OVCAR-8) was 0.341 µM (active), the GI50 (SF-268) was 0.0859 µM (active) and the GI50 (SNB-19) was 0.347 µM (active). The GI50 (HOP-62) was 0.403 µM (active), the GI50 (SF-295) was 0.478 µM (active) and the GI50 (SW-620) was 0.038 µM (active). For the same compound, the GI50 (LXFL 529) was 0.0582 µM (active), the GI50 (SK-OV-3) was 0.139 µM (active) and the GI50 (786-0) was 0.446 µM (active). For the same compound, the GI50 (HCT-15) was 0.35 µM, the GI50 (Malme-3M) was 0.065 µM (active) and the GI50 (HT-29) was 8.87 µM (inactive). For the same compound, the GI50 (COLO 205) was 11.1 µM (inactive), the GI50 (K562) was < 0.01 µM (active) and the GI50 (IGROV-1) was 0.462 µM (active). The GI50 (HCT-116) was 0.0783 µM (active), the GI50 (NCI-H460) was 0.126 µM (active) and the GI50 (SNB-78) was 0.0735 µM (active). The GI50 (NCI-H226) was 0.0612 µM (active), the GI50 (M14) was 0.0592 µM (active) and the GI50 (UACC-62) was 0.0481 µM (active). For the same compound, the GI50 (SN12C) was 0.0641 µM (active), the GI50 (MOLT-4) was 0.0989 µM (active) and the GI50 (TK-10) was 2.42 µM (inactive). For the same compound, the GI50 (SK-MEL-28) was < 0.01 µM (active), the GI50 (RXF 631) was 6.07 µM (inactive) and the GI50 (KM-20L2) was 12.1 µM (inactive). The GI50 (OVCAR-3) was 0.0632 µM (active), the GI50 (NCI-H522) was < 0.01 µM (active) and the GI50 (UACC-257) was 0.0583 µM (active). The GI50 (SF-539) was 0.0327 µM (active), the GI50 (A498) was 1.6 µM (inactive) and the GI50 (RXF 393) was 0.0559 µM (active). The GI50 (HL-60) was < 0.01 µM (active), the GI50 (RPMI-8226) was 0.121 µM (active) and the GI50 (HOP-92) was < 0.01 µM (active). For the same compound, the GI50 (OVCAR-4) was 9.23 µM (inactive), the GI50 (DMS-114) was 0.0277 µM (active) and the GI50 (M19-MEL) was 0.346 µM (active). For the same compound, the GI50 (SNB-75) was 0.0443 µM (active), the GI50 (SR) was 0.0702 µM (active) and the GI50 (LOX IMVI) was 0.0935 µM (active). The GI50 (EKVX) was 0.836 µM (active), the GI50 (DLD-1) was 0.432 µM (active) and the GI50 (OVCAR-5) was 5.4 µM (inactive). For the same compound, the GI50 (UO-31) was 0.082 µM (active), the GI50 (SK-MEL-2) was 0.0546 µM (active) and the GI50 (U-251) was 0.242 µM (active). The GI50 (SK-MEL-5) was 0.113 µM (active).
For `Cc1cccc(C(C)(C)C)c1NC(=O)C(=O)C(C(=O)/C=C\c1ccccc1)C1OC(=O)c2ccccc21` (centres undefined), the GI50 (A549) was > 100 µM (inactive), the GI50 (HCC 2998) was > 100 µM (inactive) and the GI50 (XF498) was > 100 µM (inactive). For the same compound, the GI50 (CCRF-CEM) was > 100 µM (inactive), the GI50 (KM12) was > 100 µM (inactive) and the GI50 (CAKI-1) was > 100 µM (inactive). The GI50 (NCI-H23) was > 100 µM (inactive), the GI50 (ACHN) was > 100 µM (inactive) and the GI50 (OVCAR-8) was > 100 µM (inactive). The GI50 (SF-268) was > 100 µM (inactive), the GI50 (SNB-19) was > 100 µM (inactive) and the GI50 (HOP-62) was > 100 µM (inactive). For the same compound, the GI50 (SF-295) was > 100 µM (inactive), the GI50 (SW-620) was > 100 µM (inactive) and the GI50 (LXFL 529) was > 100 µM (inactive). The GI50 (SK-OV-3) was > 100 µM (inactive), the GI50 (786-0) was > 100 µM (inactive) and the GI50 (HCT-15) was > 100 µM. For the same compound, the GI50 (Malme-3M) was > 100 µM (inactive), the GI50 (HT-29) was > 100 µM (inactive) and the GI50 (HOP-18) was > 100 µM (inactive). For the same compound, the GI50 (COLO 205) was > 100 µM (inactive), the GI50 (K562) was > 100 µM (inactive) and the GI50 (IGROV-1) was > 100 µM (inactive). For the same compound, the GI50 (HCT-116) was > 100 µM (inactive), the GI50 (NCI-H460) was > 100 µM (inactive) and the GI50 (SNB-78) was > 100 µM (inactive). For the same compound, the GI50 (NCI-H226) was > 100 µM (inactive), the GI50 (M14) was > 100 µM (inactive) and the GI50 (UACC-62) was > 100 µM (inactive). For the same compound, the GI50 (SN12C) was > 100 µM (inactive), the GI50 (MOLT-4) was > 100 µM (inactive) and the GI50 (TK-10) was > 100 µM (inactive). For the same compound, the GI50 (SK-MEL-28) was > 100 µM (inactive), the GI50 (RXF 631) was > 100 µM (inactive) and the GI50 (KM-20L2) was > 100 µM (inactive). The GI50 (OVCAR-3) was > 100 µM (inactive), the GI50 (NCI-H522) was > 100 µM (inactive) and the GI50 (UACC-257) was > 100 µM (inactive). For the same compound, the GI50 (SF-539) was > 100 µM (inactive), the GI50 (A498) was > 100 µM (inactive) and the GI50 (RXF 393) was > 100 µM (inactive). For the same compound, the GI50 (HL-60) was > 100 µM (inactive), the GI50 (RPMI-8226) was > 100 µM (inactive) and the GI50 (HOP-92) was > 100 µM (inactive). For the same compound, the GI50 (OVCAR-4) was > 100 µM (inactive), the GI50 (DMS-114) was > 100 µM (inactive) and the GI50 (M19-MEL) was > 100 µM (inactive). For the same compound, the GI50 (SNB-75) was > 100 µM (inactive), the GI50 (SR) was > 100 µM (inactive) and the GI50 (LOX IMVI) was > 100 µM (inactive). For the same compound, the GI50 (EKVX) was > 100 µM (inactive), the GI50 (DLD-1) was > 100 µM (inactive) and the GI50 (OVCAR-5) was > 100 µM (inactive). The GI50 (UO-31) was > 100 µM (inactive), the GI50 (U-251) was > 100 µM (inactive) and the GI50 (SK-MEL-5) was > 100 µM (inactive).
`CSc1nc(NC2OC(COC(C)=O)C(OC(C)=O)C(OC(C)=O)C2OC(C)=O)c(/N=C/C=N/c2c(NC3OC(COC(C)=O)C(OC(C)=O)C(OC(C)=O)C3OC(C)=O)nc(SC)[nH]c2=O)c(=O)[nH]1` (centres undefined) was tested, and the GI50 (A549) was > 100 µM (inactive), the GI50 (HCC 2998) was > 100 µM (inactive) and the GI50 (DMS-273) was > 100 µM (inactive). The GI50 (KM12) was > 100 µM (inactive), the GI50 (NCI-H23) was > 100 µM (inactive) and the GI50 (ACHN) was > 100 µM (inactive). For the same compound, the GI50 (OVCAR-8) was > 100 µM (inactive), the GI50 (SF-268) was > 100 µM (inactive) and the GI50 (SNB-19) was > 100 µM (inactive). For the same compound, the GI50 (HOP-62) was > 100 µM (inactive), the GI50 (SF-295) was > 100 µM (inactive) and the GI50 (SW-620) was > 100 µM (inactive). The GI50 (LXFL 529) was > 100 µM (inactive), the GI50 (SK-OV-3) was > 100 µM (inactive) and the GI50 (786-0) was > 100 µM (inactive). The GI50 (HCT-15) was > 100 µM, the GI50 (Malme-3M) was > 100 µM (inactive) and the GI50 (HT-29) was > 100 µM (inactive). For the same compound, the GI50 (HOP-18) was > 100 µM (inactive), the GI50 (COLO 205) was > 100 µM (inactive) and the GI50 (K562) was > 100 µM (inactive). The GI50 (IGROV-1) was > 100 µM (inactive), the GI50 (HCT-116) was > 100 µM (inactive) and the GI50 (NCI-H460) was > 100 µM (inactive). For the same compound, the GI50 (SNB-78) was > 100 µM (inactive), the GI50 (M14) was > 100 µM (inactive) and the GI50 (UACC-62) was > 100 µM (inactive). The GI50 (SN12C) was > 100 µM (inactive), the GI50 (TK-10) was > 100 µM (inactive) and the GI50 (SK-MEL-28) was > 100 µM (inactive). For the same compound, the GI50 (RXF 631) was > 100 µM (inactive), the GI50 (KM-20L2) was > 100 µM (inactive) and the GI50 (OVCAR-3) was > 100 µM (inactive). For the same compound, the GI50 (NCI-H522) was > 100 µM (inactive), the GI50 (UACC-257) was > 100 µM (inactive) and the GI50 (SF-539) was > 100 µM (inactive). For the same compound, the GI50 (A498) was > 100 µM (inactive), the GI50 (RXF 393) was > 100 µM (inactive) and the GI50 (HL-60) was > 100 µM (inactive). The GI50 (RPMI-8226) was > 100 µM (inactive), the GI50 (HOP-92) was > 100 µM (inactive) and the GI50 (OVCAR-4) was > 100 µM (inactive). The GI50 (DMS-114) was > 100 µM (inactive), the GI50 (M19-MEL) was > 100 µM (inactive) and the GI50 (SNB-75) was > 100 µM (inactive). For the same compound, the GI50 (SR) was > 100 µM (inactive), the GI50 (LOX IMVI) was > 100 µM (inactive) and the GI50 (EKVX) was > 100 µM (inactive). The GI50 (DLD-1) was > 100 µM (inactive), the GI50 (OVCAR-5) was > 100 µM (inactive) and the GI50 (UO-31) was > 100 µM (inactive). For the same compound, the GI50 (SK-MEL-2) was > 100 µM (inactive), the GI50 (U-251) was > 100 µM (inactive) and the GI50 (SK-MEL-5) was > 100 µM (inactive).
